Assay results taken from US20050120403A1, “Inhibition of generative propagation in genetically modified herbicide resistant grasses” (Advanta Seeds B. V., priority 2000, published 2005).
Marks after values point to notes of the source that are not given here.

Tests used:
[1] = tested on: Lolium perenne L. (perennial ryegrass) AtH1-expressing transformants; test: Relief of delayed heading by gibberellins (spraying, Long Day conditions); assay type: in vivo; conditions: for Mean Heading Time: transformant (T) plants, 30 mg/L in 5% ethanol + 0.01% Tween-20, sprayed six times over two weeks, days after the first spraying; for effect on heading as compared to non-treated controls: transformant plants, gibberellin 30 mg/L spray
Description: Primary transformants derived from Lolium perenne L. (perennial ryegrass) using pVDH636 were vernalized and then subjected to Long Day (LD) conditions in the greenhouse (17 hr light/7 hr dark). […] AtH1-expressing plants are generally very leafy (FIG. 10).
Four different gibberellin compounds, which differ in their florigenicity (Evans et al., 1990), were used to treat 34 clones per compound and their effect on heading time of transformants and controls was observed. Gibberellin was applied in solvent (5% ethanol supplemented with 0.01% Tween-20 surfactant) at 30 mg/L. It was applied by spraying six times with about 2-3 ml per plant over two weeks, started one week after the beginning of LD conditions. Mean heading time is shown in days after the first spraying. Non-transformant controls were treated with the solvent only.
Transformant (T) and non-transformant (NT) control plants (Table 5) were treated with the indicated gibberellin. […] Variation between transformants for their sensitivity to gibberellins could be great.

[2] = tested on: Arabidopsis and tobacco overexpressing AtH1; conditions: exogenous application; AtH1 overexpression in dicots; cited from earlier work

Compound	Mean Heading Time [1]	reversal of inhibited flowering phenotype [2]	effect on heading as compared to non-treated controls [1]
16,17-dihydro-GA5 [diHGA5]	34.2 ^ab days		
C=C1C[C@]23C[C@@]1(O)CC[C@H]2[C@@]12C=C[C@H](O)[C@@](C)(C(=O)O1)[C@H]2[C@@H]3C(=O)O [GA3, gibberellic acid]	34.1 ^ab days	can be reversed	
C=C1C[C@]23C[C@@]1(O)CC[C@H]2[C@@]12CC=C[C@@](C)(C(=O)O1)[C@H]2[C@@H]3C(=O)O [GA5]	33.5 ^a days		significantly stimulated heading
C=C1C[C@]23C[C@@]1(O)CC[C@H]2[C@@]12CCC[C@@](C)(C(=O)O1)[C@H]2[C@@H]3C(=O)O [GA20]	37.8 ^b days		somewhat delayed heading
